Results taken from patent US10316017B2, “COT modulators and methods of use thereof” (Gilead Sciences, Inc., priority 2015, dated 2019).
Read-outs that look alike come from different tables or passages of the source.

Key:
[1] = molecular target: T1, human Cot catalytic domain (30-397 amino acids) (Homo sapiens, UniProt P41279); assay: High Throughput Cot Biochemical Assay (KinEASE TR-FRET); settings: read-out: IC50 HTRF
T1 construct: Purified recombinant human Cot catalytic domain (30-397 amino acids) was purchased from Cama Biosciences; purchased Cama Biosciences (so in the source)
T1 sequence (P41279 30-397): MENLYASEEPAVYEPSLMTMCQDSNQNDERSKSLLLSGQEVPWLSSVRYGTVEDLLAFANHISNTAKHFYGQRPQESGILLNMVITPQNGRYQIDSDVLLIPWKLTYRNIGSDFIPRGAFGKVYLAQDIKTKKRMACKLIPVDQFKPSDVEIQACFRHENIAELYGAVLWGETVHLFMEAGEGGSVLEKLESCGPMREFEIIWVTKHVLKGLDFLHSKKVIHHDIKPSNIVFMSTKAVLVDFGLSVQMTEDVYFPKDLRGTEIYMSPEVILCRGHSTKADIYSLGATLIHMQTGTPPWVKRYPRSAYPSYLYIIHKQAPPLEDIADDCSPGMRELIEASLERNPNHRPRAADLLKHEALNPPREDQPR
How it was run: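 TR-FRET readout: Eu-labeled phospho-specific antibody binds XL665-tagged STK3 peptide after phosphorylation by Cot (aa 30-397, 5 nM). Conditions: 400 μM ATP, 1 μM peptide, MOPS pH 7.0 buffer with MgOAc, DTT, BSA, NP-40, glycerol; 0.1% DMSO.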

[2] = test system: TNFα production in LPS-stimulated human monocytes; assay: Cot Monocyte TNFα Cell Based Assay; settings: Homo sapiens, Monocyte, read-out: EC50 TNF
How it was run: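 TR-FRET read-out of total secreted TNFα, normalized as % control (unstimulated = 0%, LPS-stimulated = 100%). Cells (5,000/well) were exposed to compound 1 h at 37 °C, then to 50 pg/ml LPS for a further 4 h.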

[3] = Cot KinEASE TR-FRET (HTRF) biochemical assay, 400 μM ATP
[4] = TNFα in LPS-stimulated human monocytes
[5] = Cot biochemical HTRF (KinEASE TR-FRET) assay
[6] = Cot KinEASE TR-FRET, 400 μM ATP
[7] = LPS-stimulated human monocytes, TNFα TR-FRET

| SMILES | IC50 [1, 3] | EC50 [2, 4] | IC50 [1, 5] | IC50 [1, 6] | EC50 [2, 7] |
| --- | --- | --- | --- | --- | --- |
| CC[C@@H](Nc1c(C#N)cnc2c(Cl)cc(N[C@@H](c3cccc(Cl)c3)c3cn(C4CC4)nn3)cc12)c1ccccc1 [Example 273, 8-chloro-6-(((S)-(3-chlorophenyl)(1-cyclopropyl-1H-1,2,3-triazol-4-yl)methyl)amino)-4-(((R)-1-phenylpropyl)amino)quinoline-3-carbonitrile] | 13 nM | 178 nM | – | – | – |
| CN(C)Cc1cccc([C@H](Nc2cc(Cl)c3ncc(C#N)c(Nc4ccc(F)c(Cl)c4)c3c2)c2cn(C3CCN(C(C)(C)C)CC3)nn2)c1 [Compound 18] | 7 nM | 1220 nM | – | – | – |
| N#Cc1ccccc1[C@H](Nc1cc(Cl)c2ncc(C#N)c(Nc3cnc(F)c(F)c3)c2c1)c1cn(C2CC2)nn1 [Example 325, (S)-8-chloro-6-(((2-cyanophenyl)(1-cyclopropyl-1H-1,2,3-triazol-4-yl)methyl)amino)-4-((5,6-difluoropyridin-3-yl)amino)quinoline-3-carbonitrile] | 8 nM | 356 nM | – | – | – |
| [2H][C@@](Nc1cc(Cl)c2ncc(C#N)c(N[C@@H]3CCCC[C@@H]3NC(=O)OC(C)(C)C)c2c1)(c1ccc(F)cc1)c1cn(C2CC2)nn1 [Example 229, tert-butyl ((1S,2R)-2-((8-chloro-3-cyano-6-(((S)-(1-cyclopropyl-1H-1,2,3-triazo1-4-yl)(4-fluorophenyl)methyl-d)amino)quinolin-4-yl)amino)cyclohexyl) carbamate] | 2610 nM | > 10000 nM | – | – | – |
| CC(C)(C)N1CCC(n2cc([C@@H](Nc3cc(Cl)c4ncc(C#N)c(Nc5ccc(F)c(Cl)c5)c4c3)c3cccc(N)c3)nn2)CC1 [Compound 24] | 6 nM | 120 nM | – | – | – |

Results, then the compound that gave them:

| IC50 [1, 3] | EC50 [2, 4] | IC50 [1, 5] | IC50 [1, 6] | EC50 [2, 7] | SMILES |
| --- | --- | --- | --- | --- | --- |
| – | 7250 nM | 165 nM | – | – | CCCCNc1c(C#N)cnc2c(Cl)cc(N[C@@H](c3ccc(Cl)cc3)c3cn(C4CCN(C(C)(C)C)CC4)nn3)cc12 [Example 683, (S)-6-(((1-(1-(tert-butyl)piperidin-4-yl)-1H-1,2,3-triazol-4-yl)(4-chlorophenyl)methyl)amino)-4-(butylamino)-8-chloroquinoline-3-carbonitrile] |
| – | – | – | 5 nM | 70 nM | Cc1c(-c2ccncc2)cccc1[C@H](Nc1cc(C#N)c2ncc(C#N)c(NCC(C)(C)C)c2c1)c1cn(C2(C(F)(F)F)CC2)nn1 [Example 1137, (S)-6-(((2-methyl-3-(pyridin-4-yl)phenyl)(1-(1-(trifluoromethyl)cyclopropyl)-1H-1,2,3-triazol-4-yl)methyl)amino)-4-(neopentylamino)quinoline-3,8-dicarbonitrile] |
| – | > 50000 nM | 2040 nM | – | – | CC(C)(C)N1CCC(n2cc([C@@H](Nc3cc(Cl)c4ncc(C#N)c(Nc5ccc(OCc6ccccc6)c(Cl)c5)c4c3)c3ccc(Cl)cc3)nn2)CC1 [Example 654, (S)-4-((4-(benzyloxy)-3-chlorophenyl)amino)-6-(((1-(1-(tert-butyl)piperidin-4-yl)-1H-1,2,3-triazol-4-yl)(4-chlorophenyl)methyl)amino)-8-chloroquinoline-3-carbonitrile] |
| – | 314 nM | 13 nM | – | – | COCCn1cc([C@@H](Nc2cc(Cl)c3ncc(C#N)c(Nc4ccc(F)c(Cl)c4)c3c2)c2ccccc2)nn1 [Example 795, (S)-8-chloro-4-((3-chloro-4-fluorophenyl)amino)-6-(((1-(2-methoxyethyl)-1H-1,2,3-triazol-4-yl)(phenyl)methyl)amino)quinoline-3-carbonitrile] |
| – | – | – | 3 nM | 321 nM | CC(C)(C)CNc1c(C#N)cnc2c(C#N)cc(N[C@@H](c3ccccc3)c3cn(C4(C(N)=O)CC4)nn3)cc12 [Example 975, (S)-1-(4-(((3,8-dicyano-4-(neopentylamino)quinolin-6-yl)amino)(phenyl)methyl)-1H-1,2,3-triazol-1-yl)cyclopropane-1-carboxamide] |
